Reference: article PMC7660689, “Catechol-Type Flavonoids from the Branches of Elaeagnus glabra f. oxyphylla Exert Antioxidant Activity and an Inhibitory Effect on Amyloid-β Aggregation” (Molecules, 2020)

Assays:
[1] = ABTS radical scavenging assay; settings: for ABTS radical scavenging activity: compounds at 100 μM; for Concentration at which ABTS radical scavenging activity reached 100% / IC50: isolated compounds; for IC50: 1.5625-100 µM
Protocol: ABTS and DPPH radical scavenging assays were performed with reference to the modified method described in previously published reports to examine the antioxidant activities. […] Subsequently, the reactant was diluted 25-fold to adjust its absorbance at 734 nm to 0.7 by using a spectrophotometer (Benchmark Plus, Bio-Rad, Hercules, CA). […] The absorbance was measured at 517 nm. Ascorbic acid was used as a positive control for antioxidative activity.

Aβ1–42 peptides = biological target: T1, Aβ1–42 peptides (Homo sapiens, UniProt P05067); test: Thioflavin T (ThT) Aβ aggregation assay; type: biochemical; settings: for Inhibition of Aβ aggregation compared with positive control morin: compounds at 100 μM, morin 100 μM; for IC50: isolated compounds, 6.25-100 µM, ThT fluorescence, read-out: Inhibition of Aβ aggregation IC50
T1 construct: purchased AnaSpec
Protocol: To measure the inhibitory effect on Aβ1–42 aggregation, the SensoLyte® Thioflavin T (ThT) β-Amyloid aggregation kit (AnaSpec, Fremont, CA, USA) was used according to the modified manufacturer’s instructions. This assay is based on the property of ThT dye that increases fluorescence when bound to the aggregates of Aβ1–42 peptides. The detailed protocol is described in a previous report. Morin (100 μM) was used as a positive control for the inhibition of Aβ aggregation. Experiments were performed in triplicate and independently repeated three times. The inhibition rate (%) of Aβ aggregation was calculated according to the following equation:(1) Inhibition of Aβ aggregation %=1−Fluorescence of Aβ−treated sample/Fluorescence of untreated sample×100

[2] = DPPH radical scavenging assay; settings: for DPPH radical scavenging activity: concentrations from 1.5625 to 100 µM; for IC50: isolated compounds, 1.5625-100 µM
Protocol: ABTS and DPPH radical scavenging assays were performed with reference to the modified method described in previously published reports to examine the antioxidant activities. In the ABTS assay, 7 mM ABTS aqueous solution and 2.45 mM potassium persulfate were reacted for 12–16 h in the dark at room temperature to prepare the ABTS^•+ solution. Subsequently, the reactant was diluted 25-fold to adjust its absorbance at 734 nm to 0.7 by using a spectrophotometer (Benchmark Plus, Bio-Rad, Hercules, CA). The sample solution (100 μL) and ABTS^•+ solution (100 μL) were mixed and incubated for 5 min at room temperature in the dark.
To determine the DPPH radical scavenging activity, the sample solution (100 μL) and 0.15 mM DPPH solution (100 μL) were mixed and incubated for 3 h at room temperature in the dark. The absorbance was measured at 517 nm. Ascorbic acid was used as a positive control for antioxidative activity. The radical scavenging activity (%) was calculated using the following equation:(2) Radical scavenging activity %=1−Absorbance of sample/Absorbance of control × 100

T1 sequence (P05067 672-713 limits assumed): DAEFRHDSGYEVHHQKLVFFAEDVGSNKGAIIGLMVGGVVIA

Inhibition of Aβ aggregation compared with positive control morin (Aβ1–42 peptides) | IC50 (Aβ1–42 peptides) [µM] | IC50 [1] [µM] | IC50 [2] [µM] | SMILES | ABTS radical scavenging activity [1] [%] | Concentration at which ABTS radical scavenging activity reached 100% [1] [µM] | DPPH radical scavenging activity [2] [%] | melting point [°C]
– | – | – | – | O=C(O)c1ccc(O)cc1 [Compound 1, 4-hydroxybenzoic acid] | < 66 | – | – | –
– | – | – | – | O=C(O)c1ccccc1O [Compound 2, salicylic acid] | < 66 | – | – | –
comparably to morin | 14.6 | 3.21 | 54.9 | Oc1cc(O)c2c(c1)O[C@H](c1ccc(O)c(O)c1)[C@@H](O)[C@@H]2c1c(O)cc(O)c2c1O[C@H](c1ccc(O)c(O)c1)[C@@H](O)C2 [Compound 8, procyanidin B3] | – | 12.5 | < 52 | –
comparably to morin | 32.6 | 3.44 | > 100 | Oc1cc(O)c2c(c1)O[C@H](c1ccc(O)c(O)c1)[C@@H](O)[C@@H]2c1c(O)cc(O)c2c1O[C@H](c1ccc(O)c(O)c1)[C@H](O)C2 [Compound 9, procyanidin B4] | – | 12.5 | < 52 | –
comparably to morin | 44.5 | 4.61 | > 100 | O=C(C=Cc1ccc(O)cc1)OCC1OC(Oc2c(-c3ccc(O)c(O)c3)oc3cc(O)cc(O)c3c2=O)C(O)C(O)C1O (stereo not drawn) [Compound 13, helichrysoside] | – | 25 | < 52 | –
– | – | – | – | C=C(C)[C@@H]1CC[C@]2(C(=O)O)CC[C@]3(C)C(CCC4[C@@]5(C)CC[C@H](OC(=O)/C=C/c6ccc(O)c(O)c6)C(C)(C)C5CC[C@]43C)C12 (stereo partly drawn) [Compound 14, betulinic acid-3-O-trans-caffeate] | < 66 | – | – | 270
– | – | – | – | C[C@@H]1CC[C@]2(C(=O)O)CC[C@]3(C)C(=CCC4[C@@]5(C)CC[C@H](OC(=O)/C=C/c6ccc(O)c(O)c6)C(C)(C)C5CC[C@]43C)C2[C@H]1C (stereo partly drawn) [Compound 15, ursolic acid-3-O-trans-caffeate] | < 66 | – | – | > 300
